The values that follow come from patent US8658351B2, “Determining liver toxicity of an agent using metabolite biomarkers” (Metabolon, Inc., priority 2009, dated 2014).

For series [1], the system named is Rats. Kind of series: Rat liver toxicant study: liver histopathology. The following applies: for Histopathology (Steatosis) / Histopathology (Necrosis) / Histopathology (Cholestasis): rats, daily single oral dose; for Histopathology (Steatosis) / Histopathology (Cholestasis): day at which change was seen; for Histopathology (Necrosis): day at which change was seen (samples day 2 and day 5). Here is the method:
Rats were treated daily with a single oral dose of a known liver toxicants at low and high doses (as shown in Table 3) as well as with a vehicle control containing none of the toxicant. The hepatotoxic agents listed in Table 3 are known to induce distinct types of liver histopathology as described in Table 4. Plasma, urine, and liver samples were collected at day 2 and day 5 for metabolomic analysis, liver histopathology, and routine clinical chemistry (i.e., aspartate aminotransferase (AST), alanine aminotransferase (ALT), total bilirubin (TBIL), alkaline phosphatase (ALP)).

The subject of series [2] is Rats. Kind of series: Rat liver toxicant study: routine clinical chemistry (AST, ALT, TBIL, ALP). The following applies: day at which change was seen. The series is classed as in vivo.
Procedure: Rats were treated daily with a single oral dose of a known liver toxicants at low and high doses (as shown in Table 3) as well as with a vehicle control containing none of the toxicant. […] Plasma, urine, and liver samples were collected at day 2 and day 5 for metabolomic analysis, liver histopathology, and routine clinical chemistry (i.e., aspartate aminotransferase (AST), alanine aminotransferase (ALT), total bilirubin (TBIL), alkaline phosphatase (ALP)).
Series [3] deals with Rats. The following applies: cited from earlier work.
In series [4] the test system is humans. The following applies: cited from earlier work.
The mark [5] stands for this setting: High dose, agents known to induce distinct types of liver histopathology.
Setting [6] is: classified as No Rat Tox/Human specific.

Like-named read-outs stand apart in the source and are kept apart here.

In the case of `CCSCCC(N)C(=O)O` (racemic) [Ethionine, DL Ethionine], the “Histopathology (Steatosis)” value was “Day2~” in series [1] (high dose) and “Day2” in series [1] (low dose). In addition, the “Clinical Chemistry TBIL” value in series [2] (high dose) and in series [2] (low dose) was “Day2~” throughout. Besides, in series [3] (setting [5]), the “Classification of toxic effect on liver histopathology (type of histopathology)” value (from here on “Classification … (type of histopathology)”) was “Steatosis”.
For the compound `O=C(O)COc1nn(Cc2ccccc2)c2ccccc12` [Bendazac], the “Histopathology (Necrosis)” value in series [1] (high dose) and in series [1] (low dose) was “Day5” throughout. The “Clinical Chemistry ALP” value is recorded as “Day2~” in series [2] (high dose) and “Day2” in series [2] (low dose). Moreover, the “Clinical Chemistry ALT” value in series [2] (high dose) and in series [2] (low dose) was “Day5” each time. Further, the “Classification … (type of histopathology)” value in series [3] (rat, in vivo) is “Necrosis”.
For the compound `NC(=O)N1c2ccccc2C=Cc2ccccc21` [Carbamazepine], in series [1] (setting [6]), the “Hepatotoxic changes in rats (histopathology, clinical chemistry)” value was “no hepatotoxic changes”. The Hepatotoxicity to humans result in series [4] was “known hepatotoxins to humans”. Further, in series [3] (rat, in vivo), the “Classification … (type of histopathology)” value was “No Histopathology”.
On to `CC(C)C(=O)Nc1ccc([N+](=O)[O-])c(C(F)(F)F)c1` [Flutamide], for which, in series [1] (setting [6]), the “Hepatotoxic changes in rats (histopathology, clinical chemistry)” value is “no hepatotoxic changes”. Also, the Hepatotoxicity to humans entry in series [4] was “known hepatotoxins to humans”. The “Clinical Chemistry TBIL” value in series [2] (high dose) is recorded as “Day2”. Also, the “Classification … (type of histopathology)” value in series [3] (rat, in vivo) is listed as “No Histopathology”.
For `ClC(Cl)(Cl)Cl` [Carbon tetrachloride], the “Histopathology (Steatosis)” value in series [1] (high dose) and in series [1] (low dose) was “Day2~” in each case. The “Classification … (type of histopathology)” value in series [3] (setting [5]) is listed as “Steatosis”.
For the compound `S=C=Nc1cccc2ccccc12` [ANIT, 1-naphthyl isothiocyanate], the “Histopathology (Cholestasis)” value in series [1] (high dose) is given as “Day2~”. Further, the “Histopathology (Cholestasis)” value in series [1] (low dose) is given as “Day5”. In addition, in series [2] (high dose), the “Clinical Chemistry ALT” value was “Day2~”, the “Clinical Chemistry AST” value was “Day2~” and the “Clinical Chemistry TBIL” value is reported as “Day2~”. Besides, in series [2] (low dose), the “Clinical Chemistry ALT” value is “Day5” and the “Clinical Chemistry TBIL” value is “Day5”.
Regarding `CN(C)[C@@H]1C(O)=C(C(N)=O)C(=O)[C@@]2(O)C(O)=C3C(=O)c4c(O)cccc4[C@@](C)(O)[C@H]3C[C@@H]12` [Tetracycline], the “Histopathology (Steatosis)” value in series [1] (high dose) is listed as “Day5”; in series [1] (low dose) it was “Day2~”.
On to `CC(=O)Nc1ccc(O)cc1` [Acetaminophen], for which the “Histopathology (Necrosis)” value in series [1] (high dose) and in series [1] (low dose) was “Day2” in each case.
Regarding `CC(=O)N1CCN(c2ccc(OCC3COC(Cn4ccnc4)(c4ccc(Cl)cc4Cl)O3)cc2)CC1` (stereo not shown) [Ketoconazole], the “Classification … (type of histopathology)” value in series [3] (rat, in vivo) is reported as “Phospholipidosis”.
As to `CN(C)CCN(Cc1cccs1)c1ccccn1` [Methapyrilene], the “Histopathology (Necrosis)” value in series [1] (high dose) was “Day2~”. Besides, the “Histopathology (Necrosis)” value in series [1] (low dose) is recorded as “Day5”. Also, in series [2] (high dose), the “Clinical Chemistry ALP” value is “Day5”, the “Clinical Chemistry ALT” value is given as “Day2~”, the “Clinical Chemistry AST” value is reported as “Day2~” and the “Clinical Chemistry TBIL” value is “Day2~”. In addition, in series [2] (low dose), the “Clinical Chemistry ALT” value was “Day5”, the “Clinical Chemistry AST” value was “Day5” and the “Clinical Chemistry TBIL” value is listed as “Day5”. In addition, the “Classification … (type of histopathology)” value in series [3] (rat, in vivo) is given as “Necrosis”.
As to `Clc1ccccc1CN1CCc2sccc2C1` [Ticlopidine], the “Histopathology (Necrosis)” value in series [1] (high dose) was “Day5”.
In the case of `CS(=O)(=O)Nc1ccc([N+](=O)[O-])cc1Oc1ccccc1` [Nimesulide], the “Hepatotoxic changes in rats (histopathology, clinical chemistry)” value in series [1] (rat, in vivo) is recorded as “no hepatotoxic changes”. Further, the “Clinical Chemistry TBIL” value in series [2] (high dose) and in series [2] (low dose) was “Day2” throughout. For the same compound, the “Clinical Chemistry ALT” value in series [2] (low dose) is on record as “Day5”.
